Assay results reported in patent US20240350491A1, “METHODS AND COMPOSITIONS FOR IMMUNE CONTROL THROUGH DICKKOPF-1” (Baylor College of Medicine, priority 2021, published 2024).

Experiments:
C57BL/6 mice [1] = test: Steroid-resistant AAD models (A. niger ± LPS), fluticasone propionate; type: in vivo; conditions: A. niger conidia ±30 ng LPS; daily treatment
Description: As shown in the severe eosinophilic and neutrophilic steroid-resistant AAD models of FIGS. 14A-14B, mice challenged with Aspergillus niger (AN) develop an asthma phenotype, here showing airway hyperresponsiveness (AHR), that is steroid (fluticasone propionate; FP, a commonly used steroid in asthma) resistant. Illustrated in FIG. 14A is an experimental timeline for assessing the effect of daily FP or vehicle (liposome: dilauroylphosphatidylcholine: DLPC) treatment on AHR. AHR was measured as a function of respiratory system resistance (RRS(cmH2O·s·ml^−1)) in C57BL/6 mice challenged intranasally (q.o.d.) with 4×10^5 A. niger (AN) conidia ±30 ng lipopolysaccharide (LPS) (FIG. 14B).

Dkk-1 [2] = biological target: T1, Dkk-1 (Mus musculus, UniProt O54908); test: C. albicans-induced allergic airway disease in mice given Dkk-1 inhibitor intraperitoneally; type: in vivo, C57BL/6 mice
T1 construct: endogenous in cells; host or cells: C57BL/6 mice (whole animal; Dkk-1 released from platelets into plasma)
T1 sequence (O54908 32-272): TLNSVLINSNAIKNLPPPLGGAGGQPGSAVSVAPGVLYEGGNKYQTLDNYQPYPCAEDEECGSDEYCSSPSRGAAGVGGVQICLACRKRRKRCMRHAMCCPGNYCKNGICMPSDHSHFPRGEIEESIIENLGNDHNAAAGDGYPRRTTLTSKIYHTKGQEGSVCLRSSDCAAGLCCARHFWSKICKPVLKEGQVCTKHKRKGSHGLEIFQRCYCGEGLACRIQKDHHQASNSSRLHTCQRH
Description: The relevance of Dkk-1 to allergic airway disease induced by airway mycosis is unknown. Mice challenged with C. albicans were administered a Dkk-1 inhibitor (WAY 262611) previously shown to block this peptide in vivo (Chae et al., 2016b) (FIG. 2G).
(§1) C57BL/6 mice were administered 1×10^5 viable cells of C. albicans intranasally every other day for 8 challenges as shown in FIG. 1 (Porter et al., 2011a). Alternatively, C57BL/6 mice were given 4, 8, and 16 μmol candidalysin or 16 μmol of scrambled peptide control in PBS every other day for 8 challenges as shown in FIG. 8. Dkk-1 inhibitor (Chae et al., 2016a) (WAY262611, cat: 317700, Millipore Sigma, Burlington, MA. Dose: 10 or 20 μg/kg) and recombinant mouse Dkk-1 (5897-DK-010, R&D systems, Minneapolis, MN. Dose: 5 μg/kg) were given intraperitoneally at the same time and fungal challenge. Mice were analyzed 24 h after the final challenge for allergic airway disease endpoints.
(§2) Bronchial constriction in response to increasing dose of acetylcholine (Ach) injected intravenously, bronchoalveolar lavage fluid (BALF) cell differential counting, Dkk-1 quantitation from plasma, ELISA analysis of whole lung, flow cytometry analysis of Th cells and lung histopathology were assessed in response to C. albicans challenge as previously described (Porter et al., 2011a). Briefly, mice were anesthetized with etomidate and intravenously injected with acetylcholine via tail vein to assess AHR as quantified by measuring respiratory system resistance (RRS). Total BALF cells were collected by lavaging whole lung, total cells were enumerated and differential cell counting was performed on modified Giemsa-stained cytospin preparations. Plasma was harvested by retro-orbital bleeding and anti-coagulated by 10% 0.5M EDTA (Thermofisher scientific, Waltham MA). Lungs were harvested and processed as follows. Lungs were cut into small pieces and incubated in digestion buffer (2 mg/ml collagenase (#LS004177, Worthington), 0.04 mg/ml DNAse (#10104159001, Sigma) 1, 20% FBS in HBSS) for 1 h at 37° C. after which they were deaggregated by pressing through a […] nylon mesh and centrifuged at 400×g for 5 minutes at 4° C. Supernatants were discarded, and 1.5 mL of ACK (Thermofisher scientific, Waltham MA) was added and incubated for 3 min at room temperature for erythrocyte lysis. ACK was then neutralized with 7.5 mL of complete RPMI-1640 (Corning, NY), with 10% FBS and 1% Pen Strep, Gibco, Waltham MA). The resulting leukocyte preparations were centrifuged and prepared for flow cytometry analysis or ELISA.
Cell culture supernatants were analyzed for cytokines by standard ELISA after comparison to recombinant standard. IL-4 (Clone 11B11 and 554390 BD Biosciences, San Jose, CA), IL-5, IL-13 (DY405, DY413, R&D systems, Minneapolis, MN), IL-17 (BMS2017, Thermofisher scientific, Waltham MA), IFN-7 (555142, BD Biosciences, San Jose, CA), IL-1, IL-6, TNF (ab210895, ab213749 and ab212073, Abcam, Cambridge MA) were used as antibodies pairs and capture signals were amplified using Streptavidin-horseradish peroxidase conjugate (51-9002813, BD Biosciences, San Jose, CA). The plate was further developed using TMB substrate solution (N301, Thermofisher scientific, Waltham MA) and detected at the absorbance wavelength of 450 nm.
Total lung cells isolated above were stained with Live/Dead Fix Blue (L34961, Thermofisher scientific, Waltham MA), CD45, CD3, CD4 (103122, 100222, 100412, Biolegend, San Diego, CA). Cells were separated into 3 groups, then permeabilized and fixed using Transcription Factor Buffer Set (562574, BD Biosciences, San Jose, CA), and stained individually for T-bet, GATA3 or RORγt (561265, 560074, 562607, BD Biosciences, San Jose, CA). For megakaryocyte staining, total lung cells were stained with Live/Dead Fix Blue and CD41, CXCR4 (133927, 146507, Biolegend, San Diego, CA), Dkk-1 (BAM1765, R&D systems, Minneapolis, MN) and PE-streptavidin (405203, Biolegend, San Diego, CA). […]

Dkk-1 [3] = biological target: T1, Dkk-1; test: Fungal experimental asthma due to Aspergillus niger, Dkk-1 antagonist IN or IP; type: in vivo, C57BL/6 mice
Description: C57BL/6 mice (4-6 weeks old) were challenged every second day with 400,000 viable conidia of AN while at the same time receiving a Dkk-1 antagonist (WAY262611) intranasally (IN) or intraperitoneally (IP) for 14 days. Airway hyperresponsiveness as assessed by enhanced increases in respiratory system resistance in response to increasing doses of acetylcholine chloride injected intravenously were determined as compared to PBS control mice (blue line). […] Thus, regardless of the fungus used, either Candida albicans or A. niger as shown herein, Dkk-1 can induce AHR. Statistics: IP versus IN or AN lines: P<0.05.

Human platelets = test: Dkk-1 release from human platelets stimulated overnight at 4° C. or 37° C.; type: cell-based; conditions: overnight at both 4° C. and 37° C.; versus unstimulated platelets
Description: To investigate agents driving Dkk-1 release by platelets, human platelets were stimulated with lipopolysaccharide (LPS), thrombin, prothrombin (ProThrom), proteinase of Aspergillus melleus (PAM), or candidalysin (C. Lysin) overnight at 4° C. (FIG. 13A) or 37° C. (FIG. 13B). Unstimulated human platelets served as a control (platelets). Following stimulation, Dkk-1 concentration in the supernatant was quantified.

C57BL/6 mice [4] = test: Recombinant mouse Dkk-1 i.p. in ece1Δ/Δ C. albicans-challenged mice; type: in vivo
Description: To confirm, synthetic mouse Dkk-1 was administered to mice challenged with ece1Δ/Δ C. albicans (FIG. 3A). […] Dkk-1 alone had no effect on any index of allergic airway disease when administered through the intraperitoneal route (data not shown). Thus, in some aspects, Dkk-1 may be an important mediator of lung Th2 cell responses (Chae et al., 2016b), and may be equally important for the generation of Th17 cell responses in the context of airway mycosis. These findings further confirm that Dkk-1 is essential for the control of C. albicans growth in the lung.
as §1, §2

[5] = ece1Δ/Δ C. albicans-challenged mice

With CCC(=O)O[C@]1(C(=O)SCF)[C@H](C)C[C@H]2[C@@H]3C[C@H](F)C4=CC(=O)C=C[C@]4(C)[C@@]3(F)[C@@H](O)C[C@@]21C [FP, fluticasone propionate] as the molecule, how does the airway hyperresponsiveness (C57BL/6 mice [1]) read?
Its airway hyperresponsiveness is “exacerbate”.

What does the source list for NCC1CCN(c2nccc(-c3ccc4ccccc4c3)n2)CC1 [WAY 262611]?
lung fungal burdens (Dkk-1 [2]; C. albicans-challenged mice): markedly elevated; BALF eosinophilia (Dkk-1 [2]; C. albicans-challenged mice, 10 or 20 μg/kg i.p.): most notably reducing; BALF inflammatory cell recruitment (Dkk-1 [2]; C. albicans-challenged mice, 10 or 20 μg/kg i.p., dose-dependent): progressively reduced; secretion of type 2 cytokines (IL-4, IL-5, IL-13) from whole lung (Dkk-1 [2]; C. albicans-challenged mice, ELISA): suppression; airway hyper-responsiveness (Dkk-1 [2]; C. albicans-challenged mice, inhibitor 10 or 20 μg/kg i.p., dose-dependent, 24 h after final challenge): progressively reduced; secretion of IL-1β, IL-6 and TNF (Dkk-1 [2]; C. albicans-challenged mice, lung, ELISA): not significantly affected; secretion of IL-17 (Dkk-1 [2]; C. albicans-challenged mice, whole lung, ELISA): inhibited; recruitment to whole lung of GATA3+ Th2 and RORγt+ Th17 cells (Dkk-1 [2]; flow cytometry, correlated with inhibitor dose): decreased recruitment; airway hyperresponsiveness (AHR) in fungal experimental asthma due to Aspergillus niger (Dkk-1 [3]; FIG. 16 legend, route not stated): abrogates; AHR induced by AN (Dkk-1 [3]; IP route (systemic), 14 days, P<0.05 versus IN or AN): abrogates

thrombin was tested. Which “Dkk-1 release by platelets” value (Human platelets) did it give?
Its value is “significantly increased”.

B1: Dkk-1: recombinant mouse Dkk-1 (5897-DK-010, R&D systems), Wnt pathway antagonist peptide (protein, UniProt O54908 32-272, looked up)
Dickkopf-related protein 1: T1 sequence (O54908 32-272)
Which results are given for B1?
any index of allergic airway disease (C57BL/6 mice [4]; Dkk-1 alone, intraperitoneal route, data not shown): no effect; fungal lung burdens (C57BL/6 mice [4]; [5]): significantly reduced; recruitment of inflammatory cells, especially eosinophils, to the airways (C57BL/6 mice [4]; [5]): markedly enhanced; recruitment to lung of GATA3+ Th2 and RORγt+ Th17 cells (C57BL/6 mice [4]; [5]): markedly increase; secretion of innate pro-inflammatory cytokines (C57BL/6 mice [4]; [5]): did not influence; secretion of lung Th2 cytokines, especially IL-4, but also IL-17 (C57BL/6 mice [4]; [5]): markedly enhanced; airway hyper-responsiveness (C57BL/6 mice [4]; ece1Δ/Δ C. albicans-challenged mice, 5 μg/kg i.p.): significantly enhanced
